From patent publication US20260232812A1, “BIFUNCTIONAL MOLECULES FOR TARGETED PROTEIN DEGRADATION” (Amphista Therapeutics Limited, priority 2022, published 2026)

What was measured:
BRD9 [1] = target: T1, BRD9 (Homo sapiens, UniProt Q9H8M2); test: Assay Protocol 1 - Degradation of HiBit-BRD9 in HEK293; type: cell-based; settings: titration up to 10 μM; for Dmax: HEK293, Assay Protocol 1: HiBit-BRD9 in HEK293, 6 h
T1 sequence (Q9H8M2 1-597): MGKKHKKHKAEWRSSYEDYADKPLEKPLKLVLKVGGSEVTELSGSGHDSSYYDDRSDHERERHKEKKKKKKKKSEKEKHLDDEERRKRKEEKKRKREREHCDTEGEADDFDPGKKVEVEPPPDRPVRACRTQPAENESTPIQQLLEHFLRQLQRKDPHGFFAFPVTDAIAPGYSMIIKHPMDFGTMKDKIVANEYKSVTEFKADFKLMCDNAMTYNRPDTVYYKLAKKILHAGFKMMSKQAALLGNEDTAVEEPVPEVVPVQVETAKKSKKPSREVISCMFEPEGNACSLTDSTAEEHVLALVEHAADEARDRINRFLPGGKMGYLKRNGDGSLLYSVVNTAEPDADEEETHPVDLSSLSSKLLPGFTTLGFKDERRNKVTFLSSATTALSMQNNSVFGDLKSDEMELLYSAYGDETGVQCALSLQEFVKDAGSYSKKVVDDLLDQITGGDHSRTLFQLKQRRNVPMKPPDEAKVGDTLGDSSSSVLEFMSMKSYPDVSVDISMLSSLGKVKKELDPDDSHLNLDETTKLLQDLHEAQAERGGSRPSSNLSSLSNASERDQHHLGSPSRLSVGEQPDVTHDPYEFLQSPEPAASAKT
Protocol: Assay Protocol 1—Degradation of HiBit-BRD9 in HEK293
HEK293 stably expressing LgBit and containing a HiBit insertion for BRD9 were plated in 384-well tissue culture plates at a density of 8×10^3 per well in a volume of 36 μL and incubated overnight at 37° C. and 5% CO2. Wells were treated with test compounds (11 pt titration up to 10 μM) for 6 h prior to addition of Nano-Glo® Hibit Lytic buffer (1:50 substrate and 1:100 LgBit protein) and reading on a PheraSTAR. Degradation data was plotted and analysed using Prism 8 (Graphpad).

BRD9 [2] = target: T1, BRD9; test: Assay Protocol 2 - Degradation of BRD9 (IF) in MV4-11 cells; type: cell-based; parameters: host or cells: MV4-11; settings: Assay Protocol 2: BRD9 immunofluorescence, 24 hours
Protocol: Assay Protocol 2—Degradation of BRD9 (IF)
A suspension of MV4-11 cells (ATCC CRL-9591) was prepared in phenol red-free assay media (IMDM Thermo Scientific 21056023+10% FBS ATCC 302025) and cells were seeded at 20,000 cells per well (45 μL) in sterile black poly-d-lysine coated 384 well plates (Greiner 781948). Compounds were prepared at 1000× final concentration in DMSO, diluted 1:100 in assay media, and 5 μL compound was added to each well of the cell plate. Cells were incubated for 24 hours at 37° C. with 5% CO2. All the following incubations for immunofluorescence staining were at room temperature. 15 μL of 16% PFA was added to each well (3.7% final concentration) and the cells were fixed for 15 min then washed twice with DPBS. Cells were permeabilised with 0.1% Triton X-100 for 10 min, Triton X-100 was removed, then blocked with 1% BSA in DPBS for 1 hour. Cells were stained with 25 μL anti-BRD9 E4Q3F antibody (CST 48306) diluted 1:25600 in 1% BSA in DPBS for 2-3 hours. Wells were washed twice with DPBS then incubated with 25 μL of 1% BSA containing a 1:1000 dilution of Anti-rabbit Alexa Fluor™ 647 secondary antibody (Thermo Scientific A^21244) and 1 μg/mL Hoechst nuclear counter stain (Abcam ab228551) for 1 hour. Wells were washed twice with DPBS prior to imaging on a Perkin Elmer Operetta CLS with 10× air lens. Images were processed using Harmony High-Content Imaging and Analysis Software (Perkin Elmer) and the mean contrast ratio of Alexa Fluor™ 647 in central nuclei was used to quantify BRD9 protein levels. Data was further analysed using Dotmatics software and % BRD9 remaining was calculated by normalisation to average data from high and low control wells (cells treated with DMSO or 100 nM CFT-8634 respectively).

[3] = Assay Protocol 1: HiBit-BRD9 in HEK293, 6 h

Row | Structure (SMILES) | DC50 (BRD9 [1]; [3]) | Dmax (BRD9 [1]) | DC50 (BRD9 [2]) | Dmax^2 (BRD9 [2]) | Dmax^1 (BRD9 [1]; [3]) | Dmax (BRD9 [2])
1 | COc1cc(-c2cn(C)c(=O)c(C)c2C)cc(OC)c1CN1C2CC1CN(C(=O)/C(C#N)=C/c1cccc(Br)n1)C2 (mixture of isomers) [BRD9o, (E/Z)-3-(6-bromopyridin-2-yl)-2-(6-(2,6-dimethoxy-4-(1,4,5-trimethyl-6-oxo-1,6-dihydropyridin-3-yl)benzyl)-3,6-diazabicyclo[3.1.1]heptane-3-carbonyl)acrylonitrile] | < 0.025 µM |  | < 0.025 µM |  |  | ≥ 70%
2 | COc1cc(-c2cn(C)c(=O)c(C)c2C)cc(OC)c1CN1CC2CC(C1)N2C(=O)/C(C#N)=C/c1nccs1 (mixture of isomers) [BRD9l, (E/Z)-2-(3-(2,6-dimethoxy-4-(1,4,5-trimethyl-6-oxo-1,6-dihydropyridin-3-yl)benzyl)-3,6-diazabicyclo[3.1.1]heptane-6-carbonyl)-3-(thiazol-2-yl)acrylonitrile] | > 0.2 µM |  |  |  |  | 30 to 50%
3 | COc1cc(-c2cn(C)c(=O)c(C)c2C)cc(OC)c1CN1C2CC1CN(C(=O)/C(C#N)=C/c1nccs1)C2 (mixture of isomers) [BRD9n, (E/Z)-2-(6-(2,6-dimethoxy-4-(1,4,5-trimethyl-6-oxo-1,6-dihydropyridin-3-yl)benzyl)-3,6-diazabicyclo[3.1.1]heptane-3-carbonyl)-3-(thiazol-2-yl)acrylonitrile] | < 0.025 µM |  | < 0.025 µM |  |  | ≥ 70%
4 | COc1cc(-c2cn(C)c(=O)c(C)c2C)cc(OC)c1CN(C)C1CCN(C(=O)/C(C#N)=C/C23CC(C2)C3)CC1 (mixture of isomers) [BRD9ae, (E/Z)-3-(bicyclo[1.1.1]pentan-1-yl)-2-(4-((2,6-dimethoxy-4-(1,4,5-trimethyl-6-oxo-1,6-dihydropyridin-3-yl)benzyl)(methyl)amino)piperidine-1-carbonyl)acrylonitrile] | < 0.025 µM | ≥ 70% | < 0.025 µM |  |  | ≥ 70%
5 | COc1ccc([C@@H]2CN(C(=O)/C(C#N)=C/c3nccs3)C[C@H]2C(=O)N2CCN(Cc3c(OC)cc(-c4cn(C)c(=O)c(C)c4C)cc3OC)CC2)cc1 [BRD9be] |  |  | < 0.025 µM | +++ (+++ = ≥70%) | ++ (++ = ≥50% and <70%) | 
6 | COc1cc(-c2cn(C)c(=O)c(C)c2C)cc(OC)c1CN1CC2CCC(C1)N2C(=O)/C(C#N)=C/c1nccs1 (mixture of isomers) [BRD9q, (E/Z)-2-(3-(2,6-dimethoxy-4-(1,4,5-trimethyl-6-oxo-1,6-dihydropyridin-3-yl)benzyl)-3,8-diazabicyclo[3.2.1]octane-8-carbonyl)-3-(thiazol-2-yl)acrylonitrile] | > 0.2 µM |  | > 0.2 µM |  |  | 50 to 70%
7 | COc1cc(-c2cn(C)c(=O)c(C)c2C)cc(OC)c1CN1CCN(C(=O)[C@@H]2CN(C(=O)/C(C#N)=C/c3nccs3)C[C@H]2c2ccccc2)CC1 [BRD9ai] |  | 30 to 50% |  |  |  | 50 to 70%
8 | COc1ccc([C@@H]2CN(C(=O)/C(C#N)=C/c3nccs3)C[C@H]2C(=O)N2CCN(Cc3c(OC)cc(-c4cn(C)c(=O)c(C)c4C)cc3OC)CC2)cc1 [BRD9ah] |  | 30 to 50% | < 0.025 µM |  |  | ≥ 70%
9 | COc1cc(-c2cn(C)c(=O)c(C)c2C)cc(OC)c1CN1CCN(C(=O)C2CC(C)CN(C(=O)/C(C#N)=C/C(C)(C)C)C2)CC1 (stereo not drawn) [BRD9ba, (E)-2-(3-(4-(2,6-dimethoxy-4-(1,4,5-trimethyl-6-oxo-1,6-dihydropyridin-3-yl)benzyl)piperazine-1-carbonyl)-5-methylpiperidine-1-carbonyl)-4,4-dimethylpent-2-enenitrile] |  |  | < 0.025 µM |  |  | ≥ 70%
10 | COc1cc(-c2cn(C)c(=O)c(C)c2C)cc(OC)c1CN1CC2CC(C1)N2C(=O)/C(C#N)=C/c1cccc(Br)n1 (mixture of isomers) [BRD9m, (E/Z)-3-(6-bromopyridin-2-yl)-2-(3-(2,6-dimethoxy-4-(1,4,5-trimethyl-6-oxo-1,6-dihydropyridin-3-yl)benzyl)-3,6-diazabicyclo[3.1.1]heptane-6-carbonyl)acrylonitrile] |  |  |  |  |  | ≥ 70%
11 | COc1cc(-c2cn(C)c(=O)c(C)c2C)cc(OC)c1CN1C2CC1CN(C(=O)/C(C#N)=C/C1(C(F)(F)F)CCC1)C2 (mixture of isomers) [BRD9p, (E/Z)-2-(6-(2,6-dimethoxy-4-(1,4,5-trimethyl-6-oxo-1,6-dihydropyridin-3-yl)benzyl)-3,6-diazabicyclo[3.1.1]heptane-3-carbonyl)-3-(1-(trifluoromethyl)cyclobutyl)acrylonitrile] |  |  | 0.025 to 0.2 µM |  |  | 50 to 70%
12 | COc1cc(-c2cn(C)c(=O)c(C)c2C)cc(OC)c1CN1C2CC1CN(C(=O)/C(C#N)=C/c1cccc(C(F)(F)F)n1)C2 [BRD9af, (E)-2-(6-(2,6-dimethoxy-4-(1,4,5-trimethyl-6-oxo-1,6-dihydropyridin-3-yl)benzyl)-3,6-diazabicyclo[3.1.1]heptane-3-carbonyl)-3-(6-(trifluoromethyl)pyridin-2-yl)acrylonitrile] |  |  | < 0.025 µM |  |  | ≥ 70%

Now from value to compound, other results behind:

Row | DC50 (BRD9 [1]; [3]) | Dmax (BRD9 [1]) | DC50 (BRD9 [2]) | Dmax^2 (BRD9 [2]) | Dmax^1 (BRD9 [1]; [3]) | Structure (SMILES) | Dmax (BRD9 [2])
13 | > 0.2 µM | 30 to 50% |  |  |  | COc1cc(-c2cn(C)c(=O)c(C)c2C)cc(OC)c1CN1CCN(C(=O)/C(C#N)=C/c2nccs2)CC1 [BRD9g, (E/Z)-2-(4-(2,6-dimethoxy-4-(1,4,5-trimethyl-6-oxo-1,6-dihydropyridin-3-yl)benzyl)piperazine-1-carbonyl)-3-(thiazol-2-yl)acrylonitrile] | 
14 | < 0.025 µM |  | < 0.025 µM |  |  | COc1cc(-c2cn(C)c(=O)c(C)c2C)cc(OC)c1CN(C)C1CCN(C(=O)/C(C#N)=C/C(C)(C)C)CC1 [BRD9d, (E/Z)-2-(4-((2,6-dimethoxy-4-(1,4,5-trimethyl-6-oxo-1,6-dihydropyridin-3-yl)benzyl)(methyl)amino)piperidine-1-carbonyl)-4,4-dimethylpent-2-enenitrile] | 
15 | < 0.025 µM | ≥ 70% | < 0.025 µM |  |  | COc1cc(-c2cn(C)c(=O)c(C)c2C)cc(OC)c1CN1CCC2(CC1)CCN(C(=O)/C(C#N)=C/c1cccc(Br)n1)CC2 [BRD9r, (E/Z)-3-(6-bromopyridin-2-yl)-2-(9-(2,6-dimethoxy-4-(1,4,5-trimethyl-6-oxo-1,6-dihydropyridin-3-yl)benzyl)-3,9-diazaspiro[5.5]undecane-3-carbonyl)acrylonitrile] | 
16 | 0.025 to 0.2 µM |  | < 0.025 µM |  |  | COc1cc(-c2cn(C)c(=O)c(C)c2C)cc(OC)c1CN1CCN(C(=O)/C(C#N)=C/C(C)(C)C)CC1 [BRD9a, (E/Z)-2-(4-(2,6-dimethoxy-4-(1,4,5-trimethyl-6-oxo-1,6-dihydropyridin-3-yl)benzyl)piperazine-1-carbonyl)-4,4-dimethylpent-2-enenitrile] | 
17 | 0.025 to 0.2 µM |  |  |  |  | COc1cc(-c2cn(C)c(=O)c3ccsc23)cc(OC)c1CN1CCN(C(=O)/C(C#N)=C/C(C)(C)C)CC1 [BRD9w, (E/Z)-2-(4-(2,6-dimethoxy-4-(5-methyl-4-oxo-4,5-dihydrothieno[3,2-c]pyridin-7-yl)benzyl)piperazine-1-carbonyl)-4,4-dimethylpent-2-enenitrile] | 
18 |  |  | > 0.2 µM |  |  | COc1cc(-c2cn(C)c(=O)c(C)c2C)cc(OC)c1CN1CC2CC1CN2C(=O)/C(C#N)=C/c1nccs1 (mixture of isomers) [BRD9i, (E/Z)-2-(5-(2,6-dimethoxy-4-(1,4,5-trimethyl-6-oxo-1,6-dihydropyridin-3-yl)benzyl)-2,5-diazabicyclo[2.2.1]heptane-2-carbonyl)-3-(thiazol-2-yl)acrylonitrile] | 30 to 50%
